# Earlier results as cited in patent publication US20050176827A1, “Compositions and methods for glycogen synthesis” (priority 2002, published 2005).
# Test system: pancreatic beta cell
# Conditions: micromolar concentrations; direct effect on pancreatic beta cell, glucose dependent
smiles,measurement,value
CC(O)C(C)C(N)C(=O)O (stereo not shown) [4-hydroxyisoleucine],effect on glucose-induced insulin secretion,stimulate glucose-induced insulin secretion
